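Test compounds were applied to cells in 96-well plates for 48 hours at 5 doses. TGI: concentration producing complete growth inhibition.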
What was measured:
Experiment in all cases: DTP human tumour cell line panel, 48 h
HCC-2998 colon = test system: HCC-2998 colon
HCT-116 colon = test system: HCT-116 colon
EKVX NSCLC = test system: EKVX NSCLC
HS 578T breast = test system: HS 578T breast
SK-MEL-28 melanoma = test system: SK-MEL-28 melanoma
OVCAR-4 ovarian = test system: OVCAR-4 ovarian
M19-MEL melanoma = test system: M19-MEL melanoma
HOP-62 NSCLC = test system: HOP-62 NSCLC
OVCAR-8 ovarian = test system: OVCAR-8 ovarian
SK-OV-3 ovarian = test system: SK-OV-3 ovarian
SNB-75 CNS = test system: SNB-75 CNS
MDA-N = test system: MDA-N
HCT-15 colon = test system: HCT-15 colon
OVCAR-5 ovarian = test system: OVCAR-5 ovarian
UO-31 renal = test system: UO-31 renal
MCF7 breast = test system: MCF7 breast
OVCAR-3 ovarian = test system: OVCAR-3 ovarian
SNB-19 CNS = test system: SNB-19 CNS
NCI-H460 lung = test system: NCI-H460 lung
PC-3 prostate = test system: PC-3 prostate
786-0 renal = test system: 786-0 renal
CAKI-1 renal = test system: CAKI-1 renal
DU-145 prostate = test system: DU-145 prostate
SF-295 CNS = test system: SF-295 CNS
NCI-H522 lung = test system: NCI-H522 lung
A549 NSCLC = test system: A549 NSCLC
HOP-92 NSCLC = test system: HOP-92 NSCLC
SR leukemia = test system: SR leukemia
KM20L2 colon = test system: KM20L2 colon
COLO 205 colon = test system: COLO 205 colon
RPMI-8226 leukemia = test system: RPMI-8226 leukemia
HL-60(TB) leukemia = test system: HL-60(TB) leukemia
MDA-MB-435 = test system: MDA-MB-435
TK-10 renal = test system: TK-10 renal
MALME-3M melanoma = test system: MALME-3M melanoma
UACC-62 melanoma = test system: UACC-62 melanoma
SF-268 CNS = test system: SF-268 CNS
LXFL 529 NSCLC = test system: LXFL 529 NSCLC
SN12C renal = test system: SN12C renal
KM12 colon = test system: KM12 colon
NCI/ADR-RES ovarian = test system: NCI/ADR-RES ovarian
SW-620 colon = test system: SW-620 colon
NCI-H226 lung = test system: NCI-H226 lung
DMS 114 small cell lung = test system: DMS 114 small cell lung
U251 CNS = test system: U251 CNS
NCI-H23 lung = test system: NCI-H23 lung
SK-MEL-5 melanoma = test system: SK-MEL-5 melanoma
DMS 273 small cell lung = test system: DMS 273 small cell lung
HT29 colon = test system: HT29 colon
CCRF-CEM leukemia = test system: CCRF-CEM leukemia
LOX IMVI melanoma = test system: LOX IMVI melanoma
SK-MEL-2 melanoma = test system: SK-MEL-2 melanoma
BT-549 breast = test system: BT-549 breast
UACC-257 melanoma = test system: UACC-257 melanoma
RXF 393 renal = test system: RXF 393 renal
MOLT-4 leukemia = test system: MOLT-4 leukemia
SNB-78 CNS = test system: SNB-78 CNS
K-562 leukemia = test system: K-562 leukemia
ACHN renal = test system: ACHN renal
HOP-18 NSCLC = test system: HOP-18 NSCLC
XF 498 CNS = test system: XF 498 CNS
M14 melanoma = test system: M14 melanoma
MDA-MB-231 breast = test system: MDA-MB-231 breast
DLD-1 colon = test system: DLD-1 colon
IGROV1 ovarian = test system: IGROV1 ovarian
SF-539 CNS = test system: SF-539 CNS
A498 renal = test system: A498 renal
RXF-631 renal = test system: RXF-631 renal

`O=C(O)CN(CC(=O)O)Cc1cc(C#Cc2ccc(C#Cc3ccccc3)cc2)cc(CN(CC(=O)O)CC(=O)O)n1` showed a TGI (HCC-2998 colon) greater than 72.4 µM, a TGI (HCT-116 colon) of 39.9 µM and a TGI (EKVX NSCLC) greater than 86.8 µM. It also gave a TGI (HS 578T breast) greater than 100 µM, a TGI (SK-MEL-28 melanoma) greater than 100 µM and a TGI (OVCAR-4 ovarian) of 56 µM. The TGI (M19-MEL melanoma) was 39.9 µM, the TGI (HOP-62 NSCLC) was 71 µM and the TGI (OVCAR-8 ovarian) was greater than 60.6 µM. It also gave a TGI (SK-OV-3 ovarian) greater than 100 µM, a TGI (SNB-75 CNS) greater than 100 µM and a TGI (MDA-N) greater than 100 µM. The TGI (HCT-15 colon) was greater than 59.6 µM, the TGI (OVCAR-5 ovarian) was greater than 81.6 µM and the TGI (UO-31 renal) was greater than 79.7 µM. It also gave a TGI (MCF7 breast) of 41.8 µM, a TGI (OVCAR-3 ovarian) greater than 39.9 µM and a TGI (SNB-19 CNS) greater than 77 µM. The TGI (NCI-H460 lung) was 66.2 µM, the TGI (PC-3 prostate) was 60.9 µM and the TGI (786-0 renal) was 47.1 µM. It also gave a TGI (CAKI-1 renal) of 61.9 µM, a TGI (DU-145 prostate) greater than 100 µM and a TGI (SF-295 CNS) greater than 88.9 µM. The TGI (NCI-H522 lung) was 52 µM, the TGI (A549 NSCLC) was greater than 100 µM and the TGI (HOP-92 NSCLC) was 99.6 µM. The TGI (SR leukemia) was greater than 62.5 µM, the TGI (KM20L2 colon) was greater than 76.3 µM and the TGI (COLO 205 colon) was 36.2 µM. The TGI (RPMI-8226 leukemia) was 48.8 µM, the TGI (HL-60(TB) leukemia) was greater than 56.7 µM and the TGI (MDA-MB-435) was greater than 100 µM. For the same compound, the TGI (TK-10 renal) was greater than 86.2 µM, the TGI (MALME-3M melanoma) was greater than 85.5 µM and the TGI (UACC-62 melanoma) was 40.4 µM. It also gave a TGI (SF-268 CNS) greater than 85.4 µM, a TGI (LXFL 529 NSCLC) greater than 76.4 µM and a TGI (SN12C renal) greater than 100 µM. The TGI (KM12 colon) was greater than 92 µM, the TGI (NCI/ADR-RES ovarian) was 35.6 µM and the TGI (SW-620 colon) was greater than 68 µM. For the same compound, the TGI (NCI-H226 lung) was 58.7 µM, the TGI (DMS 114 small cell lung) was 47 µM and the TGI (U251 CNS) was 57.6 µM. For the same compound, the TGI (NCI-H23 lung) was greater than 89.7 µM, the TGI (SK-MEL-5 melanoma) was greater than 71.5 µM and the TGI (DMS 273 small cell lung) was 23.5 µM. The TGI (HT29 colon) was greater than 100 µM, the TGI (CCRF-CEM leukemia) was greater than 64.9 µM and the TGI (LOX IMVI melanoma) was 45.8 µM. The TGI (SK-MEL-2 melanoma) was greater than 73.7 µM, the TGI (BT-549 breast) was 66.6 µM and the TGI (UACC-257 melanoma) was greater than 89.1 µM. The TGI (RXF 393 renal) was greater than 62.7 µM, the TGI (MOLT-4 leukemia) was 53.7 µM and the TGI (SNB-78 CNS) was greater than 100 µM. It also gave a TGI (K-562 leukemia) greater than 67.5 µM, a TGI (ACHN renal) of 97.5 µM and a TGI (HOP-18 NSCLC) greater than 100 µM. The TGI (XF 498 CNS) was greater than 100 µM, the TGI (M14 melanoma) was greater than 76.6 µM and the TGI (MDA-MB-231 breast) was 43 µM. For the same compound, the TGI (DLD-1 colon) was greater than 68.1 µM, the TGI (IGROV1 ovarian) was 78.1 µM and the TGI (SF-539 CNS) was 59.3 µM. For the same compound, the TGI (A498 renal) was greater than 100 µM.
Compound `c1coc(CNc2ncnc3[nH]ncc23)c1` has a TGI (HCC-2998 colon) greater than 100 µM, a TGI (HCT-116 colon) greater than 100 µM and a TGI (EKVX NSCLC) greater than 100 µM. It also gave a TGI (SK-MEL-28 melanoma) greater than 100 µM, a TGI (OVCAR-4 ovarian) greater than 100 µM and a TGI (M19-MEL melanoma) greater than 100 µM. It also gave a TGI (HOP-62 NSCLC) greater than 100 µM, a TGI (OVCAR-8 ovarian) greater than 100 µM and a TGI (SK-OV-3 ovarian) greater than 100 µM. The TGI (SNB-75 CNS) was greater than 100 µM, the TGI (HCT-15 colon) was greater than 100 µM and the TGI (OVCAR-5 ovarian) was greater than 100 µM. It also gave a TGI (UO-31 renal) greater than 100 µM, a TGI (OVCAR-3 ovarian) greater than 100 µM and a TGI (SNB-19 CNS) greater than 100 µM. The TGI (NCI-H460 lung) was greater than 100 µM, the TGI (786-0 renal) was greater than 100 µM and the TGI (RXF-631 renal) was greater than 100 µM. For the same compound, the TGI (CAKI-1 renal) was greater than 100 µM, the TGI (SF-295 CNS) was greater than 100 µM and the TGI (NCI-H522 lung) was greater than 100 µM. The TGI (A549 NSCLC) was greater than 100 µM, the TGI (HOP-92 NSCLC) was greater than 100 µM and the TGI (SR leukemia) was greater than 100 µM. For the same compound, the TGI (KM20L2 colon) was greater than 100 µM, the TGI (COLO 205 colon) was greater than 100 µM and the TGI (RPMI-8226 leukemia) was greater than 100 µM. The TGI (HL-60(TB) leukemia) was greater than 100 µM, the TGI (TK-10 renal) was greater than 100 µM and the TGI (MALME-3M melanoma) was greater than 100 µM. The TGI (UACC-62 melanoma) was greater than 100 µM, the TGI (SF-268 CNS) was greater than 100 µM and the TGI (LXFL 529 NSCLC) was greater than 100 µM. For the same compound, the TGI (SN12C renal) was greater than 100 µM, the TGI (KM12 colon) was greater than 100 µM and the TGI (SW-620 colon) was greater than 100 µM. For the same compound, the TGI (NCI-H226 lung) was greater than 100 µM, the TGI (DMS 114 small cell lung) was greater than 100 µM and the TGI (U251 CNS) was greater than 100 µM. It also gave a TGI (NCI-H23 lung) greater than 100 µM, a TGI (SK-MEL-5 melanoma) greater than 100 µM and a TGI (DMS 273 small cell lung) greater than 100 µM. For the same compound, the TGI (HT29 colon) was greater than 100 µM, the TGI (CCRF-CEM leukemia) was greater than 100 µM and the TGI (LOX IMVI melanoma) was greater than 100 µM. For the same compound, the TGI (SK-MEL-2 melanoma) was greater than 100 µM, the TGI (UACC-257 melanoma) was greater than 100 µM and the TGI (RXF 393 renal) was greater than 100 µM. The TGI (MOLT-4 leukemia) was greater than 100 µM, the TGI (SNB-78 CNS) was greater than 100 µM and the TGI (K-562 leukemia) was greater than 100 µM. For the same compound, the TGI (ACHN renal) was greater than 100 µM, the TGI (XF 498 CNS) was greater than 100 µM and the TGI (M14 melanoma) was greater than 100 µM. It also gave a TGI (DLD-1 colon) greater than 100 µM, a TGI (IGROV1 ovarian) greater than 100 µM and a TGI (SF-539 CNS) greater than 100 µM. The TGI (A498 renal) was greater than 100 µM.

Reference: PubChem BioAssay (NCI)
